Read-outs that look alike come from different tables or passages of the source. One block for each molecule: values may come before it.
Legend:
[1] = molecular target: T1, cloned expressed primate D1A receptors (Macaca mulatta, UniProt O77680); assay: cAMP production in C-6-mD1 cells; type: cell-based; conditions: for agonist activity (intrinsic activity): C-6-mD1 cells / cloned expressed primate D1A receptors, relative to dopamine
T1 construct: expressed in transfected cells; host or cells: C-6 cells (C-6-mD1)
T1 sequence (O77680 whole entry): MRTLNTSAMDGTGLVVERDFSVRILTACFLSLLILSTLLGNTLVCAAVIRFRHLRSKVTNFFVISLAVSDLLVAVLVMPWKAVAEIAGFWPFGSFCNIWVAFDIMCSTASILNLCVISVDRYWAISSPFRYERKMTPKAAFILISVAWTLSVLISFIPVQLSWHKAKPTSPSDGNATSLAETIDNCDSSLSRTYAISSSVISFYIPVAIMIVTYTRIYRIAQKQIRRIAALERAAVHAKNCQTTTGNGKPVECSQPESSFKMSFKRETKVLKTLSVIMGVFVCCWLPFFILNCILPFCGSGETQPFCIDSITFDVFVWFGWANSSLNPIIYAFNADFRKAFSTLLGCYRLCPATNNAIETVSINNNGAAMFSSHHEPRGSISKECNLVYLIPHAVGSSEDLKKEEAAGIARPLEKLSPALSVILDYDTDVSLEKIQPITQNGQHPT

D1 receptors = molecular target: T2, D1 receptors (Rattus norvegicus, UniProt P18901); assay: cAMP production in rat striatum; type: biochemical; conditions: for agonist activity (intrinsic activity): rat striatum / rat striatal membranes, relative to dopamine
T2 construct: increase cAMP production in rat striatum and C-6-mD1 cells; from tissue; host or cells: rat striatum (striatal membranes)
T2 sequence (P18901 whole entry): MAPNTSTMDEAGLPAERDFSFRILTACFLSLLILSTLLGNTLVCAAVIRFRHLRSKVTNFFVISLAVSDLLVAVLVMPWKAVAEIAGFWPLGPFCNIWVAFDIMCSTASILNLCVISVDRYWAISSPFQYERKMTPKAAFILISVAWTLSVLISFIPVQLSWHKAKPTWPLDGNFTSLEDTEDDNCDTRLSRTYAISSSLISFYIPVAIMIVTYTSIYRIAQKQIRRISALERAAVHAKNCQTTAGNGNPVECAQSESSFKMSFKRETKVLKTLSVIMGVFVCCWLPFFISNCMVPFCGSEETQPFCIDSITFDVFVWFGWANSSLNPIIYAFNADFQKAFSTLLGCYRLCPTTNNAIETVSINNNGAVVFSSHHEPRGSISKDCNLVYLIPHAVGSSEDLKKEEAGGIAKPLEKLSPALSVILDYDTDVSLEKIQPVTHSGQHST

D2 receptors = assay: D2 agonist properties
[2] = tested on: D1 and D2 dopamine receptors; assay: D1:D2 selectivity; type: binding
unilateral 6-OHDA rats [3] = conditions: cited from earlier work; for efficacy in Parkinson's disease models: e.g. unilateral 6-OHDA-lesion rodent model
[4] = molecular target: T3, rat striatal D1 receptors (Rattus norvegicus, UniProt P18901); assay: binding affinity to D1 receptors, competition with SCH23390
T3 construct: increase cAMP production in rat striatum and C-6-mD1 cells; from tissue; host or cells: rat striatum (striatal membranes)
T3 sequence (P18901 whole entry): as above
Source text: Experiments have been conducted to determine the binding affinity of dinoxyline to D1 receptors.

[5] = in vivo; cited from earlier work
unilateral 6-OHDA rats [6] = assay: rat unilateral 6-OHDA rotation model of Parkinson's disease; type: in vivo; conditions: for increase in rotation relative to vehicle: 10 h; for rotation during continuous administration: osmotic minipump s.c.
Source text: Summary. In the rat unilateral 6-hydroxydopamine (6-OHDA) rotation model of Parkinson's disease, 6-OHDA is infused unilaterally into the medial forebrain bundle, the substantia nigra, or the striatum. […] When challenged with direct-acting dopamine receptor agonists, unilateral 6-OHDA rats turn contralaterally (away from the side of the lesion) because of the increased sensitivity of the postsynaptic dopamine receptors on the lesioned side. The experiments described below examine tolerance induced by the full D1 agonist, dinapsoline, using the 6-OHDA model.
Subjects. Adult male Sprague-Dawley Rats (Hilltop Laboratories, Chatsworth, Calif.), weighing between 280 and 320 grams, were used as subjects. Animals were housed individually with food and water available ad libitum, except as noted below. The light:dark schedule was 12 h:12 h, and testing was performed during the light cycle. All methods adhere to the guidelines in the Guide for the Care and Use of Experimental Animals published by the National Institutes of Health (Pub. 85-23, 1985).
Surgery. Rats were pretreated with 25 mg/kg desipramine (s.c.) approximately 30 minutes before surgery. Rats were anesthetized by inhalation of isoflurane (1.5 to 4.0%) and placed in a stereotaxic apparatus. An infusion cannula was placed in the medial forebrain bundle at the coordinates A.P. −3.8 mm, M.L. −1.5 mm, and D.V. −3.8 mm relative to bregma according to the atlas of Paxinos and Watson (1986). Ten micrograms of 6-OHDA (6-hydroxydopamine; Sigma Chemical Co., St. Louis, Mo.) in a volume of 4 μL was infused at a rate of 0.5 μL/min in a vehicle of 0.01% ascorbate. After a 14-day recovery period, rats were prescreened for rotation in response to d-amphetamine (5 mg/kg) and to apomorphine (0.3 mg/kg) 1 week later. Animals that responded to both d-amphetamine (>800 rotations in 3 h) and apomorphine (>100 rotations in 1 h) were retained for further study.
Testing of compounds began on day 28 postsurgery in each case. A new group of 6-OHDA-lesioned rats was used for each new study. In some studies, rats were implanted with a subcutaneous 14-day osmotic minipump (model 2 ML2, Alza, Palo Alto, Calif.) with a flow rate of 5.0 μL/h. The rats were re-anesthetized with 1.5 to 4% isoflurane, a small incision was made on the back of the neck, and the minipump was placed subcutaneously in the cavity. The incision was closed with sterile wound clips. Before implantation, minipumps were incubated in sterile saline (37° C.) to ensure outflow at the time of implantation. The minipumps were used to administer dinapsoline, or vehicle (50% dimethyl sulfoxide (DMSO), 12.5% ascorbic acid).
Apparatus, Procedure, and Statistics. Rats were tested for rotation in automated rotation chambers (Rotoscan, Accuscan, Columbus, Ohio). The apparatus consisted of a cylindrical Plexiglas chamber 30 cm in diameter in which the animal is fitted to a harness attached to a flexible rod connected to a rotating microswitch. Animals were allowed to habituate to chambers for 30 minutes before drug treatment in each case. Data were collected for 1 to 12 h after injection, using 15 minute time bins. Treatments were compared using one-way and repeated measures of analysis of variance (ANOVA), as appropriate; post hoc analysis was performed with Dunnett's test.
Acute Dinapsoline Administration. Beginning 1 week after the screening dose with apomorphine, subjects (n=12) were tested once per week with dinapsoline (0.02, 0.2, or 2 mg/kg) or vehicle (s.c.) using a counterbalanced design, and rotation behavior was monitored for 10 h. After the final day of testing, rats were euthanized and brains were removed for subsequent assessment of dopamine depletion. In the oral dosing experiments, a separate group of subjects (n=8) received dinapsoline (0.02, 0.2, or 2 mg/kg) or vehicle once per week using a counterbalanced design. Rats were fasted for 16 h before dosing with oral gavage, and rotation behavior was monitored for 10 h.

[7] = A-77636 0.3 mg/kg s.c. alone, 3 h

agonist activity (intrinsic activity) ([1]; hydrobromide): full agonist activity
EC50 ([1]; C-6-mD1 cells, read-out: EC50 in stimulating synthesis of cAMP via D1 receptors): < 30 nM
agonist activity (intrinsic activity) (D1 receptors; hydrobromide): full agonist activity
EC50 (D1 receptors; rat striatum, read-out: EC50 in stimulating synthesis of cAMP via D1 receptors): < 30 nM
D2 agonist properties (D2 receptors): some D2 agonist properties
affinity for dopamine D1 receptors labeled with [3H]SCH23390 ([4]; compared with dihydrexidine): high affinity
nH of competition curve ([4]; competition with SCH23390): ca. 0.7
Ki ([4]; rat striatal D1 receptors, read-out: K0.5 (affinity)): < 5 nM
SMILES: Br.Oc1ccc2c(c1O)Oc1cccc3c1C2CNC3 (racemic) [dinoxyline, (±)-8,9-dihydroxy-1,2,3,11b-tetrahydrochromeno[4,3,2-de]isoquinoline hydrobromide]
D1:D2 selectivity [2]: equally high affinity for both types of receptors
efficacy in Parkinson's disease models (unilateral 6-OHDA rats [3]): efficacious

SMILES: Oc1cc2c(cc1O)C(c1ccccc1)CNCC2 (single isomer, unassigned; (+)) [(+)-SKF-38393, reference compound]
agonist activity (intrinsic activity) [1]: partial agonist

agonist activity (intrinsic activity) [1]: full agonist
agonist activity (intrinsic activity) (D1 receptors): full agonist
D2 agonist properties (D2 receptors): some D2 agonist properties
D1:D2 selectivity [2]: ten-fold
SMILES: Oc1cc2c(cc1O)[C@H]1c3ccccc3CN[C@@H]1CC2 (stereo in doubt) [dihydrexidine, (+)-trans-10,11-dihydroxy-5,6,6a,7,8,12b-hexahydrobenzo[a]phenanthridine]
efficacy in Parkinson's disease models (unilateral 6-OHDA rats [3]): efficacious

SMILES: NC[C@@H]1O[C@H](C23CC4CC(CC(C4)C2)C3)Cc2c1ccc(O)c2O [Compound A-77636, reference compound]
plasma half-life [5]: > 6 h
D1:D2 selectivity [2]: more strongly D1 selective than dinapsoline
duration of action (unilateral 6-OHDA rats [3]; Asin and Wirtshafter, 1993): 18 h
duration of rotation (unilateral 6-OHDA rats [6]; 1 mg/kg s.c.): approximately 18 h
behavioral tolerance (unilateral 6-OHDA rats [6]; 1 mg/kg s.c. once daily for 14 days, 3 h rotation): dramatic behavioral tolerance
rotation on second day of dosing (unilateral 6-OHDA rats [6]; 1 mg/kg s.c. once daily, day 2 vs day 1): significantly less rotation than on the first day
amount of rotation on fourth day of dosing (unilateral 6-OHDA rats [6]; 1 mg/kg s.c. once daily, day 4, complete tolerance): no greater than that seen with vehicle
rotation in naive animals (unilateral 6-OHDA rats [6]; 1 mg/kg s.c., first day): robust rotation
tolerance on day 3 challenge (unilateral 6-OHDA rats [6]; A-77636 0.3 mg/kg s.c. alone after 2 days A-77636 with or without quinpirole): equal tolerance in both groups
rotational response day 1 (unilateral 6-OHDA rats [6]; [7]): maximal rotational response
tolerance by day 2 (unilateral 6-OHDA rats [6]; [7]): significant tolerance

SMILES: CN1CCc2cc(Cl)c(O)cc2[C@@H](c2ccccc2)C1 [SCH-23390, reference compound]
duration of action (unilateral 6-OHDA rats [6]; in our assay): approximately 3 h

SMILES: Oc1ccc2c(c1O)Cc1cccc3c1[C@H]2CNC3 [dinapsoline]
D2 agonist properties (D2 receptors): some D2 agonist properties
D1:D2 selectivity [2]: five-fold
efficacy in Parkinson's disease models (unilateral 6-OHDA rats [3]): efficacious
increase in rotation relative to vehicle (unilateral 6-OHDA rats [6]; 0.02 mg/kg s.c.): but not at 0.02 mg/kg
duration of rotation (unilateral 6-OHDA rats [6]; 0.2 mg/kg s.c.): about 5 h
increase in rotation relative to vehicle (unilateral 6-OHDA rats [6]; 0.2 mg/kg s.c.): Statistically significant increases
duration of rotation (unilateral 6-OHDA rats [6]; 2 mg/kg oral): 7 h
increase in rotation versus baseline (unilateral 6-OHDA rats [6]; 2 mg/kg oral): significantly different from baseline
change in rotational response over time (unilateral 6-OHDA rats [6]; 2 mg/kg s.c. once daily, 14 days): significant increase in response over time
behavioral tolerance (unilateral 6-OHDA rats [6]; 2 mg/kg s.c. once or twice daily, 14 days): no evidence for behavioral tolerance
change in rotational response over time (unilateral 6-OHDA rats [6]; 2 mg/kg s.c. twice daily, 14 days): significant increase in response over time
increase in rotation relative to vehicle (unilateral 6-OHDA rats [6]; 2.0 mg/kg s.c.): Statistically significant increases
rotational behavior (cumulative rotation over 10 h) (unilateral 6-OHDA rats [6]; acute 0.02, 0.2, 2 mg/kg s.c.): robust, dose-dependent rotational behavior
rotation (cumulative over 10 h) (unilateral 6-OHDA rats [6]; acute oral 0.02, 0.2, 2 mg/kg, response not dose-dependent): robust rotation
rotation after challenge dose 0.2 mg/kg s.c. on day 14 (unilateral 6-OHDA rats [6]; after 0.6 mg/kg/day by minipump): no rotation
rotation after challenge dose 0.2 mg/kg s.c. on day 14 (unilateral 6-OHDA rats [6]; after 6 mg/kg/day by minipump): no rotation
difference between groups on dinapsoline-alone challenge (unilateral 6-OHDA rats [6]; day 7, after 6 days dinapsoline with or without raclopride): no difference was observed
rotation during continuous administration (unilateral 6-OHDA rats [6]; highest dose (6 mg/kg/day)): brief behavioral response to which complete tolerance developed by 24 h
rotation during continuous administration (unilateral 6-OHDA rats [6]; lower doses (0.006, 0.06, 0.6 mg/kg/day)): no evidence of rotation

SMILES: CCN1CCC[C@H]1CNC(=O)c1c(O)c(Cl)cc(Cl)c1OC [raclopride, reference compound]
effect of daily coadministration on rotational response to dinapsoline (unilateral 6-OHDA rats [6]; raclopride 2 mg/kg s.c. with dinapsoline 2 mg/kg s.c., days 1 through 6): no significant difference
effect of antagonist pretreatment on rotational response to dinapsoline (unilateral 6-OHDA rats [6]; raclopride 2 mg/kg s.c., dinapsoline 0.2 mg/kg s.c., 3 h): did not reduce
effect of antagonist pretreatment on rotational response to dinapsoline (unilateral 6-OHDA rats [6]; raclopride 2 mg/kg s.c., dinapsoline 2 mg/kg s.c., 3 h): did not reduce
effect on rotation produced by quinpirole (unilateral 6-OHDA rats [6]; raclopride 2 mg/kg s.c., quinpirole 0.25 mg/kg s.c., data not shown): blocked completely

Source: patent US6916823B2, “Method of treatment of dopamine-related dysfunction” (Purdue Research Foundation, priority 2001, dated 2005)
